Source: patent US10336984B2, “Method of molecular stress control” (CPSI Holdings LLC, priority 2010, dated 2019)
“Also recorded” adds a separate entry of the source. Like-named read-outs stand apart in the source and are kept apart here.

Tests used:
[1] = tested on: RM-9 prostate cancer cells; experiment: Survival of RM-9 prostate cancer cells under cryotreatment (freezing) stress; assay type: cell-based, mouse; conditions: high doses
From the text: Experiments have been completed and have expanded the scope of study to (1) include natural agents as part of the formulation and (2) target various stress pathways that may be activated in cells when they are bioprocessed. A variety of agents were used in addition to resveratrol. Of these, Vitamin D3 (i.e. calcitriol) at high doses protects the cells. […] Here, the stress regime included cryotreatment (freezing).

[2] = tested on: human corneal endothelial cells (HCECs); experiment: Viability of HCECs after hypothermic storage (alamarBlue); assay type: cell-based; conditions: for survival difference between ViaSpan with and without tunicamycin: 3 days at 4° C.; for viability at 10 µM / viability at 25 µM: Homo sapiens, HCEC; for viability at 10 µM: 10 μM salubrinal
Description: (§1) Thermal Stress Regime: Cells were seeded into 96-well tissue culture plates (13,000 cells per well) and cultured for 24 hours into a monolayer. Culture media was decanted from experimental plates and replaced with 100 μl/well of the pre-cooled (4° C.) solution (complete growth media, HBSS with calcium and magnesium, ViaSpan, or OptiSol). Cultures were maintained at 4° C. for 18 hours to 9 days. Following cold storage, the media were decanted, replaced with 100 μl/well of room temperature (˜25° C.) complete culture media and then placed into standard culture conditions (37° C., 5% CO2) for recovery and assessment.
(§2) Cell Viability Assay: To assess cell viability the metabolic activity assay, alamarBlue™ (Invitrogen) was utilized. Cell culture medium was decanted from the 96-well plates and 100 μl/well of the working alamarBlue™ solution (1:20 dilution in HBSS) was applied. Samples were then incubated for 60 minutes (±1 min) at 37° C. in the dark. The fluorescence levels were analyzed using a Tecan SPECTRAFluorPlus plate reader (TECAN, Austria GmbH). Relative fluorescence units were converted to a percentage compared to normothermic controls set at 100%. Readings were taken immediately following removal from hypothermic storage as well as 24 and 48 hours of recovery.
Chemical Additions: Modulation of the UPR was accomplished through the use of salubrinal (UPR-specific inhibitor), tunicamycin (UPR-specific inducer), resveratrol, AKT, Vitamin D3, caspase and MPTP inhibitors, among others. For instance, salubrinal (EMD Chemicals Inc., Gibbstown, N.J.) was added to media at working concentrations of 10 and 25 μM immediately before utilization. Tunicamycin (EMD Chemicals Inc.) was added to ViaSpan at a working concentration of 2 ug/mL immediately prior to use. All chemicals were diluted in water, ethanol, or DMSO prior to utilization and DMSO controls were conducted to ensure no effect of the dilution vehicle.

[3] = tested on: human lung fibroblasts (IMR-90); experiment: Cold exposure of human lung fibroblasts (IMR-90); assay type: cell-based
Description: Preliminary studies into Unfolded Protein Response (UPR) pathways in cell death associated with cell stress has provided promising results. The UPR activator, tunicamycin, was applied in a thermal stress regime. In FIG. 5, human lung fibroblasts (IMR-90) were exposed to the cold (4° C.) in cell culture media, Viaspan (with and without tunicamycin), or ViaSpan with DMSO (carrier solution for tunicamycin). The DMSO control acts as a chemical chaperone. It was hypothesized that the addition of tunicamycin would result in an increased level of cell death following thermal stress.
With this discovery, additional studies were conducted under a more stressful thermal regime designed to completely destroy all cells. […] In subsequent studies, tunicamycin was added subsequent to (rather than during) the cold stress period and compared to samples without addition. (See FIG. 5).
FIG. 5 also depicts the viability of human lung fibroblasts (IMR-90) following two days of cold exposure with the addition of resveratrol (FR234). […] Yet, when tunicamycin is added during the recovery phase, this agent has the predicted lethal effect as described in the UPR literature.

[4] = tested on: human hepatoma (C3A); assay type: cell-based
From the text: Samples were processed utilizing industry standard media (Roswell Park Memorial Institute, RPMI, media), cryo-protective agents and techniques. Cell survival response curves were plotted against varying concentrations of DMSO. Samples were frozen, thawed, cultured to allow for recovery, and then frozen again. This process was repeated 4 times (e.g. Freeze #1, Freeze #2, Freeze #3, Freeze #4) over experimental periods of several weeks (FIG. 8).
As the intent of cell-guard is to reduce the negative effects of stress response of cells during normothermic culture processing, a series of studies using the freeze stress model were conducted examining the potential of stress response modulation during recovery culture. The studies examined the effect of modulating the apoptotic cell death mechanism, caspase cascade, as well as mitochondrial oxidative stress pathways. While numerous studies have looked at caspase and free radical formation inhibition during stresses including freezing, no studies have been reported looking to the effect of post-processing manipulation.
As such, in FIG. 9, C3A samples were frozen using industry standard protocols in culture media+0%, 2%, 5%, and 10% DMSO. […]

[5] = tested on: rat primary hepatocytes; experiment: Hypothermic stress of rat primary hepatocytes with supplements; assay type: cell-based
Description: as §1, §2
In FIG. 19, the C3A cells were then substituted with rat primary hepatocytes. […]

[6] = tested on: human hepatocytes; experiment: Hypoxic normothermic stress of hepatocytes with supplements; assay type: cell-based
Description: (§3) As an example, hepatocytes and C3A cells were placed under hypoxic conditions […] (normothermic incubation) in various commercial media with and without salubrinal or resveratrol. As with the cold thermal stress model, through the application of the current invention, preferential selection of either cell population was possible. The table in FIG. 10 summarizes the representative response of the various liver cells when placed into the two stress model conditions of thermal and hypoxic stress.
(§4) Stress Regime 2—Hypoxia: Cells were held at 37° C. in an incubator with reduced levels of O2 for a 24 hour period. Two hypoxia models were utilized including increased CO2 levels providing for an 80% air: 20% CO2 ratio (versus standard 95% air: 5% CO2) as well as limited gas exchange using isolated environmental chambers. This procedure is designed to model various intervals of suboptimal culture conditions associated with cell processing and utilization.

[7] = tested on: human corneal endothelial cells (HCECs); experiment: Cell death populations in HCECs after cold storage (flow cytometry, fluorescence microscopy); assay type: cell-based
Description: Fluorescence Microscopy: Samples in 96-well plates were assessed for the presence of live, necrotic or apoptotic cells through triple labeling using Hoechst [81 μM], propidium iodide [9 μM], and Y oPro-1 [0.8 μM] (Molecular Probes, Eugene, Oreg.), respectively. Probes were added to samples and incubated in the dark for 20 minutes prior to imaging. To assess membrane integrity a dual label of calcein-AM [4 μM] and propidium iodide [9 μM] was utilized. Dual label probes were added to the samples and incubated for 30 minutes in the dark. All fluorescence images of labeled cells were obtained at 1, 4, 8 and 24 hours post-storage using a Zeiss Axiovert 200 fluorescent microscope with the AxioVision 4 software (Zeiss, Germany).
Flow Cytometric Analysis: Counts of the unlabeled (live), necrotic (PI [1.5 μM]) and apoptotic (YOPRO-1 [0.1 μM]) labeled cells were obtained using microfluidic flow cytometry (Millipore). Probes were added to each sample and incubated in the dark for 20 minutes prior to cell collection. Counts of cells with polarized and depolarized mitochondria (JC-1 [7.7 μM]) were also obtained via microfluidic flow cytometry. Samples were labeled, collected and analyzed at 1, 4, 8 and 24 hours post-storage. Analysis was performed using the CytoSoft 5.2 software for the Guava PCA-96 system.
Following the observation of differences in viability through the targeted modulation of the UPR, we next analyzed what effect this targeted approach has on the level and timing of cell death following hypothermic storage. HCECs were held at 4° C. for 24 hours in various solutions (CGM, HBSS, ViaSpan and OptiSol) with and without the addition of 25 μM salubrinal and assessed via microfluidic flow cytometry and fluorescence microscopy. Analysis of the apoptotic and necrotic populations was conducted to examine the effect UPR inhibition (25 μM salubrinal) had on cell death populations post-storage.

[8] = tested on: primary human hepatocytes; experiment: Hypothermic stress of primary human hepatocytes with supplements; assay type: cell-based; conditions: hypothermic exposure at 4° C.
Description: as §1, §2
As such, in FIG. 20, primary human hepatocytes were then subjected to the same hypothermic stress paradigm. […]

[9] = tested on: C3A, human liver cancer cells; experiment: Hypoxic normothermic stress of C3A cells with supplements; assay type: cell-based; conditions: normothermic hypoxic stress regime
Description: as §3, §4

[10] = tested on: human hepatoma C3A cell lines; experiment: C3A cells three days under optimal culture conditions with FR-234 (alamarBlue); assay type: cell-based; conditions: highest dose, 100 μg/mL; three days at 37° C., 5% CO2
Description: FIG. 7 assesses the effect of the stress modulator, resveratrol (FR-234), exposure for three days under optimal culture conditions in human hepatoma C3A cell lines. In this graph, C3A cells were stored for three days under optimal culture conditions (37° C., 5% CO2) with a range of FR-234 doses. Cells were removed from storage after three days. Storage solutions were replaced with fresh culture media and viability was assessed at 1, 2, and 3 days post-storage using the metabolic activity indicator, alamarBlue.

Compound: C=C1/C(=C\C=C2/CCC[C@]3(C)[C@@H]([C@H](C)CCCC(C)(C)O)CC[C@@H]23)C[C@@H](O)C[C@@H]1O [Vitamin D3, calcitriol]
- protection of cells under stress regime [1]: protects cells

Compound: tunicamycin
- cell survival immediately post-storage ([2]; 3 days at 4° C. in ViaSpan, tunicamycin 2 ug/mL, 0 hours recovery): ~60%
- survival difference between ViaSpan with and without tunicamycin ([2]; 24 hours of recovery): 29.0%
- survival difference between ViaSpan with and without tunicamycin ([2]; 48 hours post-storage): 53.9%
- HCEC survival during the recovery period ([2]; tunicamycin added during cold exposure): significant decrease in HCEC survival
- cell survival ([3]; post stress addition of tunicamycin (recovery phase)): reduction in cell survival
- thermal tolerance ([3]; tunicamycin in Viaspan during cold (4° C.) exposure): increase in thermal tolerance
- effect of tunicamycin post-cold on samples exposed to resveratrol ([3]; two days of cold exposure): negating the positive effects of resveratrol

Compound: CC(=O)N[C@@H](CS)C(=O)O [NAC, N-Acetyl-Cysteine]
- effect on cell division in extended post-stress culture [4]: no downstream negative effect on cell division
- overall increase in sample recovery ([4]; 10% DMSO condition, supplement for first 24 hours post-processing): ~20%

Compound: O=C(/C=C/c1ccccc1)NC(NC(=S)Nc1cccc2cccnc12)C(Cl)(Cl)Cl (centres unmarked) [salubrinal]
- viability over the 48 hour recovery period ([2]; 24 hours at 4° C. in CGM, 25 μM salubrinal): retained
- effect of salubrinal addition on viability ([2]; 24 hours at 4° C. in HBSS and ViaSpan): no differences
- effect of salubrinal supplementation on viability ([2]; 48 hour storage in ViaSpan): no effect
- viability ([2]; 48 hour storage in ViaSpan with salubrinal supplementation): 76.7%
- viability following 2 days of cold storage ([2]; CGM and OptiSol, all samples with and without salubrinal): complete loss in viability
- HCEC tolerance to stress ([2]; FIG. 11, 18 hours of hypothermic storage): improves human corneal endothelial cell (HCEC) tolerance to stress
- increase in cell survival ([2]; HCEC samples experiencing profound cold-induced failure): 2 fold
- viability at 10 µM ([2]; 48 h, 2 days at 4° C. in HBSS, read-out: overall viability): 26.9%
- viability at 25 µM ([2]; 48 h, 2 days at 4° C. in HBSS, 25 μM salubrinal, read-out: overall viability): 37.8%
- viability at 10 µM ([2]; 24 hours at 4° C. in CGM, read-out: post-storage viability): 23.1%
- viability at 25 µM ([2]; 24 hours at 4° C. in CGM, 25 μM salubrinal, read-out: post-storage viability): 28%
- viability at 10 µM ([2]; 24 hours at 4° C. in OptiSol, read-out: post storage viability): 52.3%
- viability at 25 µM ([2]; 24 hours at 4° C. in OptiSol, 25 μM salubrinal, read-out: post storage viability): 53.9%
- protection of rat primary hepatocytes from hypothermic stress ([5]; hypothermic exposure at 4° C.): failed to protect
- cell viability of hepatocytes [6]: extended the cell viability of hepatocytes
- total cell retention during hypothermic exposure ([7]; 25 μM salubrinal, 24 hours at 4° C.): increased retention of total cells
- levels of apoptosis, inhibited vs uninhibited ([7]; 25 μM salubrinal, 24 hours at 4° C., each time point): elevated
- necrotic populations, UPR inhibited vs uninhibited ([7]; 25 μM salubrinal, 24 hours at 4° C., normalized to normothermic control): similar
- membrane integrity and cellular attachment during recovery ([7]; CGM storage 24 hours, calcein-AM and propidium iodide): marked increase

Compound: Oc1ccc(C=Cc2cc(O)cc(O)c2)cc1 [resveratrol]
- protection of rat primary hepatocytes from hypothermic stress [5]: very effectively protected
- protection of human hepatocytes from cold stress / cell viability [8]: able to completely protect; also recorded: extended
- cell viability of C3A cells [9]: extended the cell viability for C3A cells
- cell viability of hepatocytes ([6]; normothermic hypoxic stress regime): not for hepatocytes
- effect of resveratrol on viability ([3]; two days of cold exposure): positive effects
- effect on sample viability [10]: profound negative effect on sample viability
